The results in this text go back to patent US7029857B1, “Processes for obtaining compounds employing SNORF72 receptors” (H. Lundbeck A/S, priority 1999, dated 2006).

Where two headings read alike, the source gives them in different places. No end group written: not given here.

Assay [1] addresses T1, SNORF72 (Homo sapiens, UniProt Q9GZQ4, A395T).
T1 construct: expressed in transfected cells; host or cells: COS-7 (transient, DEAE-dextran)
The assay can be described thus: Intracellular Ca2+ release (FLIPR) in SNORF72-transfected COS-7 cells. The settings on record: SNORF72, data not shown. Format: cell-based. The protocol:
(§1) A typical protocol for the DEAE-dextran method as applied to COS-7 and HEK293 cells is described as follows. Cells to be used for transfection are split 24 hours prior to the transfection to provide flasks which are 70–80% confluent at the time of transfection. Briefly, 8 μg of receptor DNA plus 8 μg of any additional DNA needed (e.g. Gα protein expression vector, reporter construct, antibiotic resistance marker, mock vector, etc.) are added to 9 ml of complete DMEM plus DEAE-dextran mixture (10 mg/ml in PBS). Cells plated into a T225 flask (sub-confluent) are washed once with PBS and the DNA mixture is added to each flask. The cells are allowed to incubate for 30 minutes at 37° C., 5% CO2. Following the incubation, 36 ml of complete DMEM with 80 μM chloroquine is added to each flask and allowed to incubate an additional 3 hours. The medium is then aspirated and 24 ml of complete medium containing 10% DMSO for exactly 2 minutes and then aspirated. The cells are then washed 2 times with PBS and 30 ml of complete DMEM added to each flask. The cells are then allowed to incubate over night. The next day the cells are harvested by trypsinization and reseeded into 96 well plates.
(§2) Cells expressing the receptor of interest are plated into clear, flat-bottom, black-walled 96-well plates (Costar) at a density of 80,000–150,000 cells per well and allowed to incubate for 48 hr at 5% CO2, 37° C. The growth medium is aspirated and 100 μL of loading medium containing Fluo-3 dye is added to each well. The loading medium contains: 20 mM HEPES (Sigma), 0.1% BSA (Sigma), dye/pluronic acid mixture (e.g. 1 mM Fluo-3/AM (Molecular Probes) and 10% pluronic acid (Molecular Probes) mixed immediately before use), and 2.5 mM probenecid (Sigma)(prepared fresh). The cells are allowed to incubate for about 1 hour at 5% CO2, 37° C.
(§3) The compounds of interest are diluted in wash buffer (Hank's BSS (without phenol red), 20 mM HEPES, 2.5 mM probenecid) to a 4× final concentration and aliquoted into a clear v-bottom plate (Nunc). Following the dye incubation, the cells are washed 4 times to remove excess dye using a Denley plate washer. 100 μL final volume of wash buffer is then added to each cell well. Compounds are added to the cell plates and responses are measured using the FLIPR™ instrument. The data are then collected and analyzed using the FLIPR™ software and Graphpad Prism.
(§4) COS-7 cells were transiently transfected with SNORF62, SNORF72 or vector DNA (mock) as described in Materials and Methods.

Assay [2] has as its target T1, SNORF72. The assay can be described thus: Displacement of [125I]rat NMU-23 binding in SNORF72-transfected COS-7 membranes. To be noted: for displacement of [125I]rat NMU-23 binding: SNORF72 membranes. As for the experimental part: (§5) The specifics of preparing such cell membranes may in some cases be determined by the nature of the ensuing assay but typically involve harvesting whole cells and disrupting the cell pellet by sonication in ice cold buffer (e.g. 20 mM Tris HCl, mM EDTA, pH 7.4 at 4° C.). The resulting crude cell lysate is cleared of cell debris by low speed centrifugation at 200×g for 5 min at 4° C. The cleared supernatant is then centrifuged at 40,000×g for 20 min at 4° C., and the resulting membrane pellet is washed by suspending in ice cold buffer and repeating the high speed centrifugation step. The final washed membrane pellet is resuspended in assay buffer. Protein concentrations are determined by the method of Bradford (1976) using bovine serum albumin as a standard. The membranes may be used immediately or frozen for later use.
(§6) Radioligand binding assays were performed by diluting membranes prepared from cells expressing the receptor in 50 mM Tris buffer (pH=7.4 at 0° C.) containing 0.1% bovine serum albumin (Sigma), aprotinin (0.005 mg/ml, Boehringer Mannheim) and bestatin (0.1 mM, Sigma) as protease inhibitors. The final protein concentration in the assay was 12–40 μg/ml. […] The bound ligand was separated from free by filtration through GF/B filters presoaked in 0.5% polyethyleneimine (PEI), using a Tomtec (Wallac) vacuum filtration device. After addition of Ready Safe (Beckman) scintillation fluid, bound radioactivity was quantitated using a Trilux (Wallac) scintillation counter (approximately 40% counting efficiency of bound counts). Data was fit to non-linear curves using GraphPad Prism.
(§7) In this manner, agonist or antagonist compounds that bind to the receptor may be identified as they inhibit the binding of the labeled ligand to the membrane protein of cells expressing the said receptor. Non-specific binding was defined as the amount of radioactivity remaining after incubation of membrane protein in the presence of 100 nM of the unlabeled peptide corresponding to the radioligand used. In equilibrium saturation binding assays membrane preparations or intact cells transfected with the receptor are incubated in the presence of increasing concentrations of the labeled compound to determine the binding affinity of the labeled ligand.
Background: Displacement assays read how much labelled ligand stays bound in the presence of the test substance.

Assay [3] addresses T2, SNORF62 (Homo sapiens, UniProt Q9HB89).
T2 sequence (Q9HB89 1-426): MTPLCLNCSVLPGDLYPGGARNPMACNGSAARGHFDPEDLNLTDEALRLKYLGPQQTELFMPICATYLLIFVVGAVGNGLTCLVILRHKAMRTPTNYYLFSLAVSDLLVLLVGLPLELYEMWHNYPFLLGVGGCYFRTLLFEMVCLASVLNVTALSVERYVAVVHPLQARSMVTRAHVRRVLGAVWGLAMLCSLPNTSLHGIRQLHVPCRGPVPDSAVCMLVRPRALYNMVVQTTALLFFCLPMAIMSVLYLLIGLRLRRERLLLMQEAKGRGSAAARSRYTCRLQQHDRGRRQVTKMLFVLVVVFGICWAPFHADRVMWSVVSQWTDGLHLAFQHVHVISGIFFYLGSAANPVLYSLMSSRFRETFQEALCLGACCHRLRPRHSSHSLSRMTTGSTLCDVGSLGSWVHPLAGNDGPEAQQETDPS
The assay can be described thus: Intracellular Ca2+ release (FLIPR) in SNORF62-transfected COS-7 cells. In kind it is cell-based. More on the design: The SNORF62 cDNA codes for a protein of 426 amino acids; expressed in transfected cells; host or cells: COS-7 (transient, DEAE-dextran). The settings on record: SNORF62, data not shown. The protocol:
as §1, §2, §3, §4

Assay [4] deals with T2, SNORF62. Description: Displacement of [125I]rat NMU-23 binding in SNORF62-transfected COS-7 membranes. The arrangement: The SNORF62 cDNA codes for a protein of 426 amino acids; expressed in transfected cells; host or cells: COS-7 (transient, DEAE-dextran). The settings on record: for displacement of [125I]rat NMU-23 binding: SNORF62 membranes. The protocol: as §5, §6, §7

T1 sequence (Q9GZQ4 whole entry A395T): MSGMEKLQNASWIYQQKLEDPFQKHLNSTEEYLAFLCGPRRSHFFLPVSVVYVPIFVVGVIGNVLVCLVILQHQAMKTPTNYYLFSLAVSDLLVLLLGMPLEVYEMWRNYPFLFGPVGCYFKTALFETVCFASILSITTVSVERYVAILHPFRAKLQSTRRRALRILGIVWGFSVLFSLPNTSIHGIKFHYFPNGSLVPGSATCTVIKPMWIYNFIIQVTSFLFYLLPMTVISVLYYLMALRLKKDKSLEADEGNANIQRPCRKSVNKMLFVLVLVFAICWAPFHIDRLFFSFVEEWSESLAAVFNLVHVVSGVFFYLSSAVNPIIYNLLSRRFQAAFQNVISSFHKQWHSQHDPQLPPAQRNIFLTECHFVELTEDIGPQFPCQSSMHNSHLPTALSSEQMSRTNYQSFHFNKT

For `CC[C@H](C)[C@H](NC(=O)[C@H](CO)NC(=O)[C@H](CC(N)=O)NC(=O)[C@H](CC(C)C)NC(=O)[C@H](Cc1ccc(O)cc1)NC(=O)[C@H](CCCCN)NC(=O)[C@H](CCCCN)NC(=O)[C@@H](NC(=O)[C@H](C)NC(=O)[C@H](CCSC)NC(=O)[C@H](CCC(N)=O)NC(=O)[C@H](CCCCN)NC(=O)[C@H](CCCNC(=N)N)NC(=O)[C@H](CC(C)C)NC(=O)[C@H](CCCNC(=N)N)NC(=O)[C@@H](NC(=O)[C@H](Cc1ccc(O)cc1)NC(=O)[C@H](CC(N)=O)NC(=O)[C@H](CC(=O)O)NC(=O)[C@@H](NC(=O)[C@H](Cc1ccccc1)NC(=O)[C@@H](NC(=O)[C@H](C)NC(=O)[C@H](CC(=O)O)NC(=O)[C@H](CO)NC(=O)[C@@H](N)Cc1c[nH]cn1)C(C)C)[C@@H](C)O)[C@@H](C)O)C(C)C)C(=O)N[C@@H](CC(C)C)C(=O)N[C@@H](CC(N)=O)C(N)=O` [VIP], the “activate the receptors in transfected COS-7 cells” value (“activate the receptors” below) at SNORF72 [1] and on SNORF62 [3] was “did not” in each case. The “displacement of [125I]rat NMU-23 binding” value at SNORF72 [2] and at SNORF62 [4] was “did not displace binding” each time.
On to `CC[C@H](C)[C@H](NC(=O)[C@H](Cc1ccc(O)cc1)NC(=O)[C@H](CCCNC(=N)N)NC(=O)[C@H](CCCNC(=N)N)NC(=O)[C@H](CC(C)C)NC(=O)[C@H](CCC(N)=O)NC(=O)[C@@H](NC(=O)[C@H](CCC(=O)O)NC(=O)[C@H](Cc1ccc(O)cc1)NC(=O)[C@H](CCC(N)=O)NC(=O)[C@H](C)NC(=O)[C@H](CCCNC(=N)N)NC(=O)[C@H](CCC(N)=O)NC(=O)[C@H](CCC(=O)O)NC(=O)[C@H](Cc1c[nH]cn1)NC(=O)[C@@H](NC(=O)[C@H](C)NC(=O)[C@H](Cc1ccc(O)cc1)NC(=O)[C@H](CC(=O)O)NC(=O)CNC(=O)[C@@H]1CCCN1C(=O)[C@H](Cc1ccc(O)cc1)NC(=O)[C@H](CCSC)NC(=O)[C@@H]1CCCN1C(=O)[C@H](CCC(=O)O)NC(=O)[C@H](CC(C)C)NC(=O)[C@@H]1CCCN1C(=O)[C@H](C)N)[C@@H](C)O)[C@@H](C)O)C(=O)N[C@@H](CC(N)=O)C(=O)N[C@H](C(=O)N[C@@H](CC(C)C)C(=O)N[C@H](C(=O)N[C@@H](CCCNC(=N)N)C(=O)N1CCC[C@H]1C(=O)N[C@@H](CCCNC(=N)N)C(=O)N[C@@H](Cc1ccc(O)cc1)C(N)=O)[C@@H](C)O)[C@@H](C)O` [rat PP], for which the “activate the receptors” value on SNORF72 [1] and on SNORF62 [3] was “did not” each time. The “displacement of [125I]rat NMU-23 binding” value on SNORF72 [2] and at SNORF62 [4] was “did not displace binding” each time. In addition, the Ki was above 10 µM at SNORF72 [2] (binding affinity, SNORF72-transfected COS-7 cells, unit printed in cell (Table 1A), read-out: SNORF72 Avg Ki); above 10 µM at SNORF72 [2] (displacement of [125I]rat NMU-23 (0.05-0.1 nM), n = 2 (Table 2), read-out: SNORF72 Avg pKi (converted)); above 10 µM on SNORF62 [4] (binding affinity, SNORF62-transfected COS-7 cells, unit printed in cell (Table 1A), read-out: SNORF62 Avg Ki); above 10 µM at SNORF62 [4] (displacement of [125I]rat NMU-23 (0.05-0.1 nM), n = 2 (Table 2), read-out: SNORF62 Avg pKi (converted)).
On to “APSEPHHPGDQATQDQLAQYYSDLYQYITFVTRPRF-NH2 (C-terminus assumed) [frog PP]”, for which the “activate the receptors” value on SNORF72 [1] and on SNORF62 [3] was “did not” throughout. The “displacement of [125I]rat NMU-23 binding” value on SNORF72 [2] and on SNORF62 [4] was “did not displace binding” each time.
